From patent US7186714B2, “Imidazo[1,2-α]pyridine derivatives for the prophylaxis and treatment of herpes viral infections” (SmithKline Beecham Corporation, priority 2001, dated 2007)

Tested on: HSV-1
Experiment: HSV infection of Vero 76 cells, viral DNA detected by hybridization capture with chemiluminescence
Type: cell-based
Settings: Human alphaherpesvirus 1; HSV-1 in Vero 76 cells, MOI=0.001, incubated 40–48 hours with test compound
Experimental: Vero 76 cells were maintained in MEM with Earle's salts, L-glutamine, 8% FBS (Hyclone, A-1111-L) and 100 units/mL Penicillin-100 μg/mL Streptomycin. For assay conditions, FBS was reduced to 2%. Cells are seeded into 96-well tissue culture plates at a density of 5×10^4 cells/well after being incubated for 45 min at 37° C. in the presence of HSV-1 or HSV-2 (MOI=0.001). Test compounds are added to the wells and the plates are incubated at 37° C. for 40–48 hours. Cell lysates are prepared as follows: media was removed and replaced with 150 μL/well 0.2 N NaOH with 1% Igepal CA 630 or NP-40. Plates were incubated up to 14 days at room temperature in a humidified chamber to prevent evaporation.
For the detection probe, a gel-purified, digoxigenin-labeled, 710-bp PCR fragment of the HSV UL-15 sequence was utilized. PCR conditions included 0.5 μM primers, 180 μM dTTP, 20 μM dUTP-digoxigenin (Boehringer Mannheim 1558706), 200 μM each of dATP, dCTP, and dGTP, 1×PCR Buffer II (Perkin Elmer), 2.5 mM MgCl2, 0.025 units/μL of AmpliTaq Gold polymerase (Perkin Elmer), and 5 ng of gel-purified HSV DNA per 100 μL Extension conditions were 10 min at 95° C., followed by 30 cycles of 95° C. for 1 min, 55° C. for 30 sec, and 72° C. for 2 min. The amplification was completed with a 10-min incubation at 72° C. Primers were selected to amplify a 728 bp probe spanning a section of the HSV1 UL15 open reading frame (nucleotides 249–977). Single-stranded transcripts were purified with Promega M13 Wizard kits. The final product was mixed 1:1 with a mixture of 6 M GuSCN, 100 mM EDTA and 200 μg/mL herring sperm DNA and stored at 4° C.
The capture DNA plasmid (HSV UL13 region in pUC) was linearized by cutting with XbaI, denatured for 15 min at 95° C. and diluted immediately into Reacti-Bind DNA Coating Solution (Pierce, 17250, diluted 1:1 with TE buffer, pH 8) at 1 ng/μL 75 μL/well were added to Corning (#3922 or 9690) white 96-well plates and incubated at room temperature for at least 4 hrs before washing twice with 300 μL/well 0.2×SSC/0.05% Tween-20 (SSC/T buffer). The plates were then incubated overnight at room temperature with 150 μL/well 0.2 N NaOH, 1% IGEPAL and 10 μg/mL herring sperm DNA.
Twenty-seven (27) μL of cell lysate was combined with 45 μL of hybridization solution (final concentration: 3M GuSCN, 50 mM EDTA, 100 μg/ml salmon sperm DNA, 5×Denhardt's solution, 0.25×APE, and 5 ng of the digoxigenin-labeled detection probe). APE is 1.5 M NH4-acetate, 0.15 M ammonium phosphate monobasic, and 5 mM EDTA adjusted to pH 6.0. Mineral oil (50 μL) was added to prevent evaporation. The hybridization plates were incubated at 95° C. for 10 minutes to denature the DNA, then incubated at 42° C. overnight. The wells were washed 6× with 300 μL/well SSC/T buffer then incubated with 75 μL/well anti-digoxigenin-HRP-conjugated antibody (Boehringer Mannheim 1207733, 1:5000 in TE) for 30 min at room temperature. The wells were washed 6× with 300 μL/well with PBS/0.05% Tween-20 before 75 μL/well SuperSignal LBA substrate (Pierce) was added. The plates were incubated at room temperature for 30 minutes and chemiluminescence was measured in a Wallac Victor reader.

| Compound | IC50 |
| --- | --- |
| Nc1cccc(-c2nc3c(NC4CCCC4)cccn3c2-c2ccnc(NC3CCCC3)n2)c1 [Example 33, 2-(3-Aminophenyl)-N-cyclopentyl-3-[2-(cyclopentylamino)-4-pyrimidinyl]imidazo[1,2-α]pyridin-8-amine] | 1600 nM |
| c1cc(NCC2CC2)cc(-c2nc3c(NC4CCCC4)cccn3c2-c2ccnc(NC3CCCC3)n2)c1 [Example 34, N-Cyclopentyl-3-[2-(cyclopentylamino)-4-pyrimidinyl]-2-{3-[(cyclopropylmethyl)amino]phenyl}imidazo[1,2-α]pyridin-8-amine] | 1500 nM |
| c1cc(-c2nc3c(NC4CCCC4)cccn3c2-c2ccnc(NC3CCCC3)n2)cc(N(CC2CC2)CC2CC2)c1 [Example 35, 2-{3-[Bis(cyclopropylmethyl)amino]phenyl}-N-cyclopentyl-3-[2-(cyclopentylamino)-4-pyrimidinyl]imidazo[1,2-α]pyridin-8-amine] | 1460 nM |
| Fc1ccc(-c2nc3c(NC4CCCC4)cc(Cl)cn3c2-c2ccnc(NC3CCCC3)n2)cc1 [Example 39, N-{4-[6-Chloro-8-(cyclopentylamino)-2-(4-fluorophenyl)imidazo[1,2-α]pyridin-3-yl]-2-pyrimidinyl}-N-cyclopentylamine] | 1400 nM |
| Cc1cccn2c(-c3ccnc(NC4CCCC4)n3)c(-c3ccc(F)cc3)nc12 [Example 46, N-Cyclopentyl-4-[2-(4-fluorophenyl)-8-methylimidazo[1,2-a]pyridin-3-yl]-2-pyrimidinamine] | 1500 nM |
| Fc1ccc(-c2nc3ccc(Br)cn3c2-c2ccnc(NC3CCCC3)n2)cc1 [Example 47, N-{4-[6-Bromo-2-(4-fluorophenyl)imidazo[1,2-a]pyridin-3-yl]-2-pyrimidinyl}-N-cyclopentylamine] | 4000 nM |
| Fc1ccc(-c2nc3ccc(NC4CCCC4)cn3c2-c2ccnc(NC3CCCC3)n2)cc1 [Example 48, N-Cyclopentyl-3-[2-(cyclopentylamino)-4-pyrimidinyl]-2-(4-fluorophenyl)imidazo[1,2-a]pyridin-6-amine] | 2100 nM |
| Fc1ccc(-c2nc3ccccn3c2-c2ccnc(NC3CCCC3)n2)cc1 [Example 49, N-Cyclopentyl-4-[2-(4-fluorophenyl)imidazo[1,2-a]pyridin-3-yl]-2-pyrimidinamine] | 3300 nM |
| O=C(O)c1cccc(-c2nc3c(NC4CCCC4)cccn3c2-c2ccnc(NC3CCCC3)n2)c1 [Example 55, 3-{8-(Cyclopentylamino)-3-[2-(cyclopentylamino)pyrimidin-4-yl]imidazo[1,2-a]pyridin-2-yl}benzoic acid] | 7000 nM |
| CCCCNc1cccn2c(-c3ccnc(NC4CCCC4)n3)c(-c3cccc(N=[N+]=[N-])c3)nc12 [Example 56, 2-(3-Azidophenyl)-N-butyl-3-[2-(cyclopentylamino)pyrimidin-4-yl]imidazo[1,2-a]pyridin-8-amine] | 2900 nM |

These reach a lower IC50. Values come first.

| IC50 | Compound |
| --- | --- |
| 650 nM | N#Cc1cccc(-c2nc3c(Cl)cccn3c2-c2ccnc(NC3CCCC3)n2)c1 [Example 36, 3-{8-Chloro-3-[2-(cyclopentylamino)-4-pyrimidinyl]imidazo[1,2-α]pyridin-2-yl}benzonitrile] |
| 950 nM | Fc1ccc(-c2nc3c(Cl)cc(Cl)cn3c2-c2ccnc(NC3CCCC3)n2)cc1 [Example 38, N-Cyclopentyl-4-[6,8-dichloro-2-(4-fluorophenyl)imidazo[1,2-α]pyridin-3-yl]-2-pyrimidinamine] |
| 790 nM | Fc1ccc(-c2nc3c(Br)cc(Br)cn3c2-c2ccnc(NC3CCCC3)n2)cc1 [Example 40, N-Cyclopentyl-4-[6,8-dibromo-2-(4-fluorophenyl)imidazo[1,2-a]pyridin-3-yl]-2-pyrimidinamine] |
| 180 nM | Fc1ccc(-c2nc3c(NC4CCCC4)cc(Br)cn3c2-c2ccnc(NC3CCCC3)n2)cc1 [Example 41, N-{4-[6-Bromo-8-(cyclopentylamino)-2-(4-fluorophenyl)imidazo[1,2-a]pyridin-3-yl]-2-pyrimidinyl}-N-cyclopentylamine] |
| 290 nM | CCCCNc1cc(Br)cn2c(-c3ccnc(NC4CCCC4)n3)c(-c3ccc(F)cc3)nc12 [Example 42, 6-Bromo-N-butyl-3-[2-(cyclopentylamino)-4-pyrimidinyl]-2-(4-fluorophenyl)imidazo[1,2-a]pyridin-8-amine] |
| 470 nM | Fc1ccc(-c2nc3c(N4CCOCC4)cc(N4CCOCC4)cn3c2-c2ccnc(NC3CCCC3)n2)cc1 [Example 43, N-Cyclopentyl-4-[2-(4-fluorophenyl)-6,8-di(4-morpholinyl)imidazo[1,2-a]pyridin-3-yl]-2-pyrimidinamine] |
| 1200 nM | Cc1cc(Br)cn2c(-c3ccnc(NC4CCCC4)n3)c(-c3ccc(F)cc3)nc12 [Example 44, N-{4-[6-Bromo-2-(4-fluorophenyl)-8-methylimidazo[1,2-a]pyridin-3-yl]-2-pyrimidinyl}-N-cyclopentylamine] |
| 140 nM | Cc1cc(NC2CCCC2)cn2c(-c3ccnc(NC4CCCC4)n3)c(-c3ccc(F)cc3)nc12 [Example 45, N-Cyclopentyl-3-[2-(cyclopentylamino)-4-pyrimidinyl]-2-(4-fluorophenyl)-8-methylimidazo[1,2-a]pyridin-6-amine] |
| 180 nM | Fc1ccc(-c2nc3ccc(N4CCOCC4)cn3c2-c2ccnc(NC3CCCC3)n2)cc1 [Example 50, N-Cyclopentyl-4-[2-(4-fluorophenyl)-6-(4-morpholinyl)imidazo[1,2-a]pyridin-3-yl]-2-pyrimidinamine] |
| 510 nM | Fc1ccc(-c2nc3c(NC4CC4)cccn3c2-c2ccnc(NC3CCCC3)n2)cc1 [Example 51, 3-[2-(cyclopentylamino)-4-pyrimidinyl]-N-cyclopropyl-2-(4-fluorophenyl)imidazo[1,2-a]pyridin-8-amine] |
| 620 nM | C=CCOc1ccc(-c2nc3c(NC4CCCC4)cccn3c2-c2ccnc(NC3CCCC3)n2)cc1 [Example 52, 2-[4-(Allyloxy)phenyl]-N-cyclopentyl-3-[2-(cyclopentylamino)-4-pyrimidinyl]imidazo[1,2-a]pyridin-8-amine] |
| 200 nM | c1cc(NC2CCCC2)c2nc(-c3ccc(OCC4CC4)cc3)c(-c3ccnc(NC4CCCC4)n3)n2c1 [Example 53, N-Cyclopentyl-3-[2-(cyclopentylamino)-4-pyrimidinyl]-2-[4-(cyclopropylmethoxy)phenyl]imidazo[1,2-a]pyridin-8-amine] |
| 840 nM | Fc1ccc(-c2nc3c(NC4CCCC4)cc(C(F)(F)F)cn3c2-c2ccnc(NC3CCCC3)n2)cc1 [Example 54, N-Cyclopentyl-3-[2-(cyclopentylamino)-4-pyrimidinyl]-2-(4-fluorophenyl)-6-(trifluoromethyl)imidazo[1,2-a]pyridin-8-amine] |
| 970 nM | Fc1ccc(-c2nc3c(OCc4ccccc4)cccn3c2-c2ccnc(NC3CCCC3)n2)cc1 [Example 57, 4-[8-(Benzyloxy)-2-(4-fluorophenyl)imidazo[1,2-a]pyridin-3-yl]-N-cyclopentylpyrimidin-2-amine] |
| 200 nM | Oc1cccn2c(-c3ccnc(NC4CCCC4)n3)c(-c3ccc(F)cc3)nc12 [Example 58] |
